# Data published in PubChem BioAssay (NCI).
#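 Each compound was tested at five concentrations against cells in 96-well plates for 48 hours. At the GI50, growth is halved. TGI marks complete inhibition of growth.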
# Columns and labels:
# Assay in all cases: inhibition of tumour cell growth, NCI panel, 48 h
# SF-539 CNS = test system: SF-539 CNS
# COLO 205 colon = test system: COLO 205 colon
# BT-549 breast = test system: BT-549 breast
# UACC-257 melanoma = test system: UACC-257 melanoma
# OVCAR-3 ovarian = test system: OVCAR-3 ovarian
# OVCAR-5 ovarian = test system: OVCAR-5 ovarian
# 786-0 renal = test system: 786-0 renal
# PC-3 prostate = test system: PC-3 prostate
# HCC-2998 colon = test system: HCC-2998 colon
# SK-MEL-2 melanoma = test system: SK-MEL-2 melanoma
# SK-MEL-5 melanoma = test system: SK-MEL-5 melanoma
# SR leukemia = test system: SR leukemia
# NCI-H522 lung = test system: NCI-H522 lung
# MALME-3M melanoma = test system: MALME-3M melanoma
# HL-60(TB) leukemia = test system: HL-60(TB) leukemia
# M14 melanoma = test system: M14 melanoma
# A549 NSCLC = test system: A549 NSCLC
# RPMI-8226 leukemia = test system: RPMI-8226 leukemia
# HCT-116 colon = test system: HCT-116 colon
# UO-31 renal = test system: UO-31 renal
# HT29 colon = test system: HT29 colon
# SNB-75 CNS = test system: SNB-75 CNS
# SF-295 CNS = test system: SF-295 CNS
# MDA-MB-231 breast = test system: MDA-MB-231 breast
# CCRF-CEM leukemia = test system: CCRF-CEM leukemia
# CAKI-1 renal = test system: CAKI-1 renal
# HCT-15 colon = test system: HCT-15 colon
# SNB-19 CNS = test system: SNB-19 CNS
# KM12 colon = test system: KM12 colon
# LOX IMVI melanoma = test system: LOX IMVI melanoma
# T-47D breast = test system: T-47D breast
# K-562 leukemia = test system: K-562 leukemia
# TK-10 renal = test system: TK-10 renal
# SK-OV-3 ovarian = test system: SK-OV-3 ovarian
# U251 CNS = test system: U251 CNS
# HOP-62 NSCLC = test system: HOP-62 NSCLC
# SK-MEL-28 melanoma = test system: SK-MEL-28 melanoma
# NCI/ADR-RES ovarian = test system: NCI/ADR-RES ovarian
# A498 renal = test system: A498 renal
# IGROV1 ovarian = test system: IGROV1 ovarian
# SF-268 CNS = test system: SF-268 CNS
# OVCAR-4 ovarian = test system: OVCAR-4 ovarian
# ACHN renal = test system: ACHN renal
# SN12C renal = test system: SN12C renal
# UACC-62 melanoma = test system: UACC-62 melanoma
# MDA-MB-435 = test system: MDA-MB-435
# RXF 393 renal = test system: RXF 393 renal
# EKVX NSCLC = test system: EKVX NSCLC
# MOLT-4 leukemia = test system: MOLT-4 leukemia
# SW-620 colon = test system: SW-620 colon
# DU-145 prostate = test system: DU-145 prostate
# NCI-H226 lung = test system: NCI-H226 lung
# HOP-92 NSCLC = test system: HOP-92 NSCLC
# OVCAR-8 ovarian = test system: OVCAR-8 ovarian
# NCI-H460 lung = test system: NCI-H460 lung
# MCF7 breast = test system: MCF7 breast
# HS 578T breast = test system: HS 578T breast
compound,measurement,setting,value
CCOP(=O)(OCC)OC[C@]12CC[C@@H](C)[C@H](C)C1C1=CC[C@@H]3[C@@]4(C)CCCNC(C)(C)[C@@H]4CC[C@@]3(C)[C@]1(C)CC2 (some centres undefined),GI50,SF-539 CNS,1630 nM
same,TGI,SF-539 CNS,3040 nM
same,GI50,COLO 205 colon,2060 nM
same,TGI,COLO 205 colon,4230 nM
same,GI50,BT-549 breast,4490 nM
same,TGI,BT-549 breast,17600 nM
same,GI50,UACC-257 melanoma,2130 nM
same,TGI,UACC-257 melanoma,4950 nM
same,GI50,OVCAR-3 ovarian,1720 nM
same,TGI,OVCAR-3 ovarian,3330 nM
same,GI50,OVCAR-5 ovarian,1680 nM
same,TGI,OVCAR-5 ovarian,3090 nM
same,GI50,786-0 renal,1510 nM
same,TGI,786-0 renal,2980 nM
same,GI50,PC-3 prostate,1570 nM
same,TGI,PC-3 prostate,3150 nM
same,GI50,HCC-2998 colon,1850 nM
same,TGI,HCC-2998 colon,3420 nM
same,GI50,SK-MEL-2 melanoma,4800 nM
same,TGI,SK-MEL-2 melanoma,20700 nM
same,GI50,SK-MEL-5 melanoma,1690 nM
same,TGI,SK-MEL-5 melanoma,3110 nM
same,GI50,SR leukemia,1410 nM
same,TGI,SR leukemia,3640 nM
same,GI50,NCI-H522 lung,1840 nM
same,TGI,NCI-H522 lung,3910 nM
same,GI50,MALME-3M melanoma,1650 nM
same,TGI,MALME-3M melanoma,3120 nM
same,GI50,HL-60(TB) leukemia,1670 nM
same,TGI,HL-60(TB) leukemia,3470 nM
same,GI50,M14 melanoma,1740 nM
same,TGI,M14 melanoma,3320 nM
same,GI50,A549 NSCLC,1780 nM
same,TGI,A549 NSCLC,3540 nM
same,GI50,RPMI-8226 leukemia,2200 nM
same,TGI,RPMI-8226 leukemia,5700 nM
same,GI50,HCT-116 colon,1690 nM
same,TGI,HCT-116 colon,3210 nM
same,GI50,UO-31 renal,1440 nM
same,TGI,UO-31 renal,2930 nM
same,GI50,HT29 colon,1880 nM
same,TGI,HT29 colon,4090 nM
same,GI50,SNB-75 CNS,2830 nM
same,TGI,SNB-75 CNS,15600 nM
same,GI50,SF-295 CNS,1780 nM
same,TGI,SF-295 CNS,3340 nM
same,GI50,MDA-MB-231 breast,1700 nM
same,TGI,MDA-MB-231 breast,3190 nM
same,GI50,CCRF-CEM leukemia,2530 nM
same,TGI,CCRF-CEM leukemia,8140 nM
same,GI50,CAKI-1 renal,1440 nM
same,TGI,CAKI-1 renal,2790 nM
same,GI50,HCT-15 colon,1680 nM
same,TGI,HCT-15 colon,3170 nM
same,GI50,SNB-19 CNS,1690 nM
same,TGI,SNB-19 CNS,3240 nM
same,GI50,KM12 colon,1910 nM
same,TGI,KM12 colon,3570 nM
same,GI50,LOX IMVI melanoma,1210 nM
same,TGI,LOX IMVI melanoma,2560 nM
same,GI50,T-47D breast,1600 nM
same,TGI,T-47D breast,3780 nM
same,GI50,K-562 leukemia,1570 nM
same,TGI,K-562 leukemia,3320 nM
same,GI50,TK-10 renal,3490 nM
same,TGI,TK-10 renal,12800 nM
same,GI50,SK-OV-3 ovarian,3270 nM
same,TGI,SK-OV-3 ovarian,10600 nM
same,GI50,U251 CNS,1650 nM
same,TGI,U251 CNS,3350 nM
same,GI50,HOP-62 NSCLC,1950 nM
same,TGI,HOP-62 NSCLC,3930 nM
same,GI50,SK-MEL-28 melanoma,1690 nM
same,TGI,SK-MEL-28 melanoma,3110 nM
same,GI50,NCI/ADR-RES ovarian,1790 nM
same,TGI,NCI/ADR-RES ovarian,3390 nM
same,GI50,A498 renal,5080 nM
same,TGI,A498 renal,21800 nM
same,GI50,IGROV1 ovarian,1570 nM
same,TGI,IGROV1 ovarian,3000 nM
same,GI50,SF-268 CNS,2510 nM
same,TGI,SF-268 CNS,9240 nM
same,GI50,OVCAR-4 ovarian,2270 nM
same,TGI,OVCAR-4 ovarian,6130 nM
same,GI50,ACHN renal,1720 nM
same,TGI,ACHN renal,3110 nM
same,GI50,SN12C renal,1530 nM
same,TGI,SN12C renal,2940 nM
same,GI50,UACC-62 melanoma,1550 nM
same,TGI,UACC-62 melanoma,3110 nM
same,GI50,MDA-MB-435,1760 nM
same,TGI,MDA-MB-435,3310 nM
same,GI50,RXF 393 renal,1310 nM
same,TGI,RXF 393 renal,2690 nM
same,GI50,EKVX NSCLC,1530 nM
same,TGI,EKVX NSCLC,2960 nM
same,GI50,MOLT-4 leukemia,1520 nM
same,TGI,MOLT-4 leukemia,3510 nM
same,GI50,SW-620 colon,1820 nM
same,TGI,SW-620 colon,3450 nM
same,GI50,DU-145 prostate,1940 nM
same,TGI,DU-145 prostate,3710 nM
same,GI50,NCI-H226 lung,4980 nM
same,TGI,NCI-H226 lung,23300 nM
same,GI50,HOP-92 NSCLC,1510 nM
same,TGI,HOP-92 NSCLC,4510 nM
same,GI50,OVCAR-8 ovarian,1900 nM
same,TGI,OVCAR-8 ovarian,3960 nM
same,GI50,NCI-H460 lung,1830 nM
same,TGI,NCI-H460 lung,3460 nM
same,GI50,MCF7 breast,1590 nM
same,TGI,MCF7 breast,3170 nM
same,GI50,HS 578T breast,2680 nM
same,TGI,HS 578T breast,8090 nM
